Test results reported in PMC9133015 (Nature Communications, 2022).
“And” between values parts separate entries of the source, which are not always exact repeats. Equal values may be shown once.

Columns and labels:
Assay in all cases: Kinase inhibitor specificity profiling (Reaction Biology Corporation)
Type in all cases: biochemical
Design in all cases: % Enzyme Activity (relative to DMSO controls): concentration or dose not given beside the values
[1] = target: T1, panel of 370 protein kinases (Homo sapiens, UniProt Q8IYT8); conditions: 2 h, kinase ULK2; read-out: % Enzyme Activity (relative to DMSO controls)
T1 construct: purchased Reaction Biology Corporation (assay service)

[2] = target: T2, panel of 370 protein kinases (Homo sapiens, UniProt P31751); conditions: 2 h, kinase AKT2; read-out: % Enzyme Activity (relative to DMSO controls)
T2 construct: purchased Reaction Biology Corporation (assay service)

[3] = target: T3, panel of 370 protein kinases (Homo sapiens, UniProt P29376); conditions: 2 h, kinase TYK1/LTK; read-out: % Enzyme Activity (relative to DMSO controls)
T3 construct: purchased Reaction Biology Corporation (assay service)

[4] = target: T4, panel of 370 protein kinases (Homo sapiens, UniProt Q8N568); conditions: 2 h, kinase DCAMKL2; read-out: % Enzyme Activity (relative to DMSO controls)
T4 construct: purchased Reaction Biology Corporation (assay service)

[5] = target: T5, panel of 370 protein kinases (Homo sapiens, UniProt Q12866); conditions: 2 h, kinase c-MER; read-out: % Enzyme Activity (relative to DMSO controls)
T5 construct: purchased Reaction Biology Corporation (assay service)

[6] = target: T6, panel of 370 protein kinases (Homo sapiens, UniProt Q13188); conditions: 2 h, kinase MST2/STK3; read-out: % Enzyme Activity (relative to DMSO controls)
T6 construct: purchased Reaction Biology Corporation (assay service)

[7] = target: T7, panel of 370 protein kinases (Homo sapiens, UniProt P30530); conditions: 2 h, kinase AXL; read-out: % Enzyme Activity (relative to DMSO controls)
T7 construct: purchased Reaction Biology Corporation (assay service)

[8] = target: T8, panel of 370 protein kinases (Homo sapiens, UniProt P15735); conditions: 2 h, kinase PHKg2; read-out: % Enzyme Activity (relative to DMSO controls)
T8 construct: purchased Reaction Biology Corporation (assay service)

[9] = target: T9, panel of 370 protein kinases (Homo sapiens, UniProt Q9HCP0); conditions: kinase CK1g1
T9 construct: purchased Reaction Biology Corporation (assay service)

[10] = target: T10, panel of 370 protein kinases (Homo sapiens, UniProt Q07002); conditions: 2 h, kinase CDK18/cyclin Y (PCTK3); read-out: % Enzyme Activity (relative to DMSO controls)
T10 construct: purchased Reaction Biology Corporation (assay service)

[11] = target: T11, panel of 370 protein kinases (Homo sapiens, UniProt Q13464); conditions: 2 h, kinase ROCK1; read-out: % Enzyme Activity (relative to DMSO controls)
T11 construct: purchased Reaction Biology Corporation (assay service)

[12] = target: T12, panel of 370 protein kinases (Homo sapiens, UniProt Q9UQM7); conditions: 2 h, kinase CAMK2a; read-out: % Enzyme Activity (relative to DMSO controls)
T12 construct: purchased Reaction Biology Corporation (assay service)

[13] = target: T13, panel of 370 protein kinases (Homo sapiens, UniProt P22612); conditions: 2 h, kinase PKAcg; read-out: % Enzyme Activity (relative to DMSO controls)
T13 construct: purchased Reaction Biology Corporation (assay service)

[14] = target: T14, panel of 370 protein kinases (Homo sapiens, UniProt P54760); conditions: 2 h, kinase EPHB4; read-out: % Enzyme Activity (relative to DMSO controls)
T14 construct: purchased Reaction Biology Corporation (assay service)

[15] = target: T15, panel of 370 protein kinases (Homo sapiens, UniProt P29320); conditions: 2 h, kinase EPHA3; read-out: % Enzyme Activity (relative to DMSO controls)
T15 construct: purchased Reaction Biology Corporation (assay service)

[16] = target: T16, panel of 370 protein kinases (Homo sapiens, UniProt Q8IY84); conditions: 2 h, kinase NIM1; read-out: % Enzyme Activity (relative to DMSO controls)
T16 construct: purchased Reaction Biology Corporation (assay service)

[17] = target: T17, panel of 370 protein kinases (Homo sapiens, UniProt Q15418); conditions: 2 h, kinase RSK1; read-out: % Enzyme Activity (relative to DMSO controls)
T17 construct: purchased Reaction Biology Corporation (assay service)

[18] = target: T18, panel of 370 protein kinases (Homo sapiens, UniProt O00444); conditions: 2 h, kinase PLK4/SAK; read-out: % Enzyme Activity (relative to DMSO controls)
T18 construct: purchased Reaction Biology Corporation (assay service)

[19] = target: T19, panel of 370 protein kinases (Homo sapiens, UniProt Q13233); conditions: 2 h, kinase MEKK1; read-out: % Enzyme Activity (relative to DMSO controls)
T19 construct: purchased Reaction Biology Corporation (assay service)

[20] = target: T20, panel of 370 protein kinases (Homo sapiens, UniProt Q6DT37); conditions: 2 h, kinase DMPK2; read-out: % Enzyme Activity (relative to DMSO controls)
T20 construct: purchased Reaction Biology Corporation (assay service)

[21] = target: T21, panel of 370 protein kinases (Homo sapiens, UniProt Q9HC98); conditions: 2 h, kinase NEK6; read-out: % Enzyme Activity (relative to DMSO controls)
T21 construct: purchased Reaction Biology Corporation (assay service)

T9 sequence (Q9HCP0 whole entry): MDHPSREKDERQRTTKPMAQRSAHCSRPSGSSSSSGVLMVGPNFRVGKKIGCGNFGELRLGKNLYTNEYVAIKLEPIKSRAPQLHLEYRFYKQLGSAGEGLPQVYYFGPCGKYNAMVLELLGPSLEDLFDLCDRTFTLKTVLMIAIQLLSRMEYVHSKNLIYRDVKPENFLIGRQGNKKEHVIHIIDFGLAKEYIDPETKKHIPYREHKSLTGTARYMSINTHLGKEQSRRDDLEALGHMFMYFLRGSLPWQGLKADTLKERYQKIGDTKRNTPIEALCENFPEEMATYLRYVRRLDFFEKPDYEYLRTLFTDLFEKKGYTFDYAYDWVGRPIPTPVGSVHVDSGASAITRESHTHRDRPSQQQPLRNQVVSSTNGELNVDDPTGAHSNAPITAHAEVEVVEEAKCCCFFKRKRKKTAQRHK
T14 sequence (P54760 16-987): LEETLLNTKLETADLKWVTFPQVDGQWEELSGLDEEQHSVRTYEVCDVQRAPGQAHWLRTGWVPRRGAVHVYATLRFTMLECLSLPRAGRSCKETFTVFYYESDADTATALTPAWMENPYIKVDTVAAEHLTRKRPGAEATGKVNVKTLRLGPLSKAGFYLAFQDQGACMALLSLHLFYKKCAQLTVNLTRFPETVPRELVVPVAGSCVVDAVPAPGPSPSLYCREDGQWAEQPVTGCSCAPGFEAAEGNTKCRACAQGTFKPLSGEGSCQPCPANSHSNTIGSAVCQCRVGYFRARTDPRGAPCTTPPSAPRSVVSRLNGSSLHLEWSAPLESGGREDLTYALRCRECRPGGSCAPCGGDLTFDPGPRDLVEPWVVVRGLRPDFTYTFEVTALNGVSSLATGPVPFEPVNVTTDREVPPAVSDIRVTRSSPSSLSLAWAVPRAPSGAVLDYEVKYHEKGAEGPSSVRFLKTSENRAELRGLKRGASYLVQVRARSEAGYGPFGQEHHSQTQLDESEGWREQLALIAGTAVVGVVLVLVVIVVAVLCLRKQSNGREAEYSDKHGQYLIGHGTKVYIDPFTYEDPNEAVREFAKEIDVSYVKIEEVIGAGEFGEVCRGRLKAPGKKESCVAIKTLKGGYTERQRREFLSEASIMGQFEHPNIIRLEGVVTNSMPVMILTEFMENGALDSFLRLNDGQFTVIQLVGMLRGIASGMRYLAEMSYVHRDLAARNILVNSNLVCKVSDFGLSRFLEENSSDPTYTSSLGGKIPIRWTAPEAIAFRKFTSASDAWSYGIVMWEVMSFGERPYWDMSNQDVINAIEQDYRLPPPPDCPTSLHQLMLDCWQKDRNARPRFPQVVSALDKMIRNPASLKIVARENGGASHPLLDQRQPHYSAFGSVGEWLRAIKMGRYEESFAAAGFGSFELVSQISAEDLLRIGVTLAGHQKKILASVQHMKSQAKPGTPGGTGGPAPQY
T8 sequence (P15735 whole entry): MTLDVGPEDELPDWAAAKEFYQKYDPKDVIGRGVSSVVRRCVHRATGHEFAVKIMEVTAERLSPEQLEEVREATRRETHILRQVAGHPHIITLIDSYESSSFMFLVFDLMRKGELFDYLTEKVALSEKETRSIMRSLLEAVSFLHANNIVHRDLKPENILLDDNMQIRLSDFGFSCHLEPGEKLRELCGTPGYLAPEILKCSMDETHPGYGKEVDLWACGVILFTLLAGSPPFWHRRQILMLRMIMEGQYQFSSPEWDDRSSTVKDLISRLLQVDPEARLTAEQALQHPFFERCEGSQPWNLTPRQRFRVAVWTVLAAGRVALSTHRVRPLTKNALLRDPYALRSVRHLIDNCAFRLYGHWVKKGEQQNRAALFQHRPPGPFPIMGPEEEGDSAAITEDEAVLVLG
T19 sequence (Q13233 whole entry): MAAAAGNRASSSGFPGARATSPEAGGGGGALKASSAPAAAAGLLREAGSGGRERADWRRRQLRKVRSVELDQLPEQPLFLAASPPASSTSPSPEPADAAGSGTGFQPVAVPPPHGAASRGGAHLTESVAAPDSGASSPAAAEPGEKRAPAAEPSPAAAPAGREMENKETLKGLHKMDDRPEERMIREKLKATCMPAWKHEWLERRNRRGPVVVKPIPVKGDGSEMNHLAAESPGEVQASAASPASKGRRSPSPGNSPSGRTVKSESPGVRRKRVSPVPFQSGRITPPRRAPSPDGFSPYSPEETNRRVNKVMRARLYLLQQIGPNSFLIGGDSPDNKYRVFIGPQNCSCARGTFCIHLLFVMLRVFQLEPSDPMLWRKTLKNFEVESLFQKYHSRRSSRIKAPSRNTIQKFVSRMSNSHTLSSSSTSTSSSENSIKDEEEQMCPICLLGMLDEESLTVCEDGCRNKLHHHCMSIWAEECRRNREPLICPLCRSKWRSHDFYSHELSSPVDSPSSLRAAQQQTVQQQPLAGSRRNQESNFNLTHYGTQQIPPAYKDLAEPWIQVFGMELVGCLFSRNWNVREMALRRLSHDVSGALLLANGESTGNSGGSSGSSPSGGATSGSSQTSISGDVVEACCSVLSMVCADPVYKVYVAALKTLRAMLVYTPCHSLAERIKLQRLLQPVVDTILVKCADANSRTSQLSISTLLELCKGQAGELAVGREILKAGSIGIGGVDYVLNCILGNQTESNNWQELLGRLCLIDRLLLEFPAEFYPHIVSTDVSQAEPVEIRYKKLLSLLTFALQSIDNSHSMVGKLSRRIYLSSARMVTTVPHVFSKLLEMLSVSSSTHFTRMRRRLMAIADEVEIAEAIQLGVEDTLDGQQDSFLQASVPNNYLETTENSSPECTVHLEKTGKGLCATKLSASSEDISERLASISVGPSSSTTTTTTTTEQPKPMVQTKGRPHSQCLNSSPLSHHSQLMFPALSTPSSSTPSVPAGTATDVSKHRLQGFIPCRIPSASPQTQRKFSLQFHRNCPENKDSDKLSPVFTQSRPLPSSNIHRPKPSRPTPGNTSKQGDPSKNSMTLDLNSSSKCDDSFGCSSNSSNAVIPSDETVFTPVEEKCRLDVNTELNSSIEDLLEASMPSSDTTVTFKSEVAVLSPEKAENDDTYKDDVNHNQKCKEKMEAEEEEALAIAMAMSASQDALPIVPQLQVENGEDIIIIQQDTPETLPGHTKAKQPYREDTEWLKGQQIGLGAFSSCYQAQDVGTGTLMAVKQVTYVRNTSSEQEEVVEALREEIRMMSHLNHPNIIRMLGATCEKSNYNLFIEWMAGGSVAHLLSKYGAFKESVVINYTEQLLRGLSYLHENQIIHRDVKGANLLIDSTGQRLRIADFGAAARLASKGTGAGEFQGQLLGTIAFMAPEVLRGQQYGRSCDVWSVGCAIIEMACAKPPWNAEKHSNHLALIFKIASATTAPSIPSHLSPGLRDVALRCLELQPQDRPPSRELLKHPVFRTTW
T6 sequence (Q13188 whole entry): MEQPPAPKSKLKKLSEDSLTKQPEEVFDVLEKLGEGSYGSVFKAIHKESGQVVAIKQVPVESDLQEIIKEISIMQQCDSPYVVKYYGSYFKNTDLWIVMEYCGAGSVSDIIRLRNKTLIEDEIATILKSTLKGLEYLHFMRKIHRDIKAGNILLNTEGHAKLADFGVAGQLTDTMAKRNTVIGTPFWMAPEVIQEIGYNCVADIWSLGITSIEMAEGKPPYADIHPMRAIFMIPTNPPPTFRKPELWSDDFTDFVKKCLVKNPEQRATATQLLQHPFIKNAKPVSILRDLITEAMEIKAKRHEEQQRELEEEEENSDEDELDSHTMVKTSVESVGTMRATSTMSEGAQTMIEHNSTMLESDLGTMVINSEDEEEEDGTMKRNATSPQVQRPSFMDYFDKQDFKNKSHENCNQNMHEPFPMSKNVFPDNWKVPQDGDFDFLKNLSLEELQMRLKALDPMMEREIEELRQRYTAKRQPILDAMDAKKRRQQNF
T3 sequence (P29376 17-864): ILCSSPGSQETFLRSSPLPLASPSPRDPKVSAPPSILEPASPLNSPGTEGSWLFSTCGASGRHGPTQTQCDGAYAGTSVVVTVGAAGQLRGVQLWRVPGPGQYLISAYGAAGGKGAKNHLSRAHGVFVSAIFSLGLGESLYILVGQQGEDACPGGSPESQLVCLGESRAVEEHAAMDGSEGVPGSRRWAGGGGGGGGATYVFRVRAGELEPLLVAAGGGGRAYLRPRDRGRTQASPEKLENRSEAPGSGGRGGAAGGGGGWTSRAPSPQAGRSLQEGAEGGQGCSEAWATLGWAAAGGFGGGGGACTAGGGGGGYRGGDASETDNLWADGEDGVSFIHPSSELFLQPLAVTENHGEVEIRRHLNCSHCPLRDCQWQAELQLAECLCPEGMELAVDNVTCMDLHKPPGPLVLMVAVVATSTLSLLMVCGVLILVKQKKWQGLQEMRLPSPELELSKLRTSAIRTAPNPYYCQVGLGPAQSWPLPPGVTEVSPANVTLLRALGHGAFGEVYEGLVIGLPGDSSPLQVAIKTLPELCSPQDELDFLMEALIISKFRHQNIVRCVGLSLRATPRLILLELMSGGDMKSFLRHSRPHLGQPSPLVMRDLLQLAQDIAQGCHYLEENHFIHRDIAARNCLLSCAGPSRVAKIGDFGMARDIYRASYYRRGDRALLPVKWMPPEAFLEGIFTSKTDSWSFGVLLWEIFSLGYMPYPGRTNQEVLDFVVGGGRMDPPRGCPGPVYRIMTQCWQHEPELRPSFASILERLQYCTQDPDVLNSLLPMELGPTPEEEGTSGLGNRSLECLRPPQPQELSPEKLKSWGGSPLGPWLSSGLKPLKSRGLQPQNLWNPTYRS
T13 sequence (P22612 whole entry): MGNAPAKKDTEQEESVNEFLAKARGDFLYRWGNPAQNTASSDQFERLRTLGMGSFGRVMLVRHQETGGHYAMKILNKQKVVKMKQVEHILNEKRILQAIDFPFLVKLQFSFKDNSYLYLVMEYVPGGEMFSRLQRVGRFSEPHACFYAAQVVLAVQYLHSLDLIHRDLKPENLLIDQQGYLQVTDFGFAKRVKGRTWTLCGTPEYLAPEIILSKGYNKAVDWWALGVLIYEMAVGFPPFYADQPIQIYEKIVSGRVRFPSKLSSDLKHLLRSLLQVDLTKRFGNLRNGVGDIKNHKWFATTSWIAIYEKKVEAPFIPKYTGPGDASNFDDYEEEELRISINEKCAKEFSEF

## CCN1CCN(C(=O)c2ccc(Nc3ncc(F)c(-c4ccc5nc(N(C)C)sc5c4)n3)nc2)CC1 [YK-2-69]
[1]
  remaining activity at 1 µM: 97.9%
[2]
  remaining activity at 1 µM: 98.6%
[3]
  remaining activity at 1 µM: 109%
[4]
  remaining activity at 1 µM: 108%
[5]
  remaining activity at 1 µM: 96.8%
[6]
  remaining activity at 1 µM: 98.9%
[7]
  remaining activity at 1 µM: 94.3%
[8]
  remaining activity at 1 µM: 97.9%
[9]
  % Enzyme Activity (relative to DMSO controls): 102.35% and 96.73%
[10]
  remaining activity at 1 µM: 99.1%
[11]
  remaining activity at 1 µM: 92.8%
[12]
  remaining activity at 1 µM: 37.5%
[13]
  remaining activity at 1 µM: 96.9%
[14]
  remaining activity at 1 µM: 106%
[15]
  remaining activity at 1 µM: 95.2%
[16]
  remaining activity at 1 µM: 96.9%
[17]
  remaining activity at 1 µM: 102%
[18]
  remaining activity at 1 µM: 72.6%
[19]
  remaining activity at 1 µM: 99.7%
[20]
  remaining activity at 1 µM: 97.7%
[21]
  remaining activity at 1 µM: 103%
